Reference: paper PMC7724630, “Improving the Stability of EGFR Inhibitor Cobalt(III) Prodrugs” (Inorganic Chemistry, 2020)
Read-outs that look alike come from different tables or passages of the source.

Legend:
[1] = target: EGFR (ErbB1) (Homo sapiens, UniProt P00533); assay: Cell-free kinase inhibition assay (ZLYTE, Select Screen); type: biochemical; settings: 10 μM ATP (10-fold excess of ATP), 1% DMSO
[2] = tested on: A431 cancer cells; assay: MTT-based cytotoxicity assay under different O2 levels; type: cell-based, Human; settings: A431, 72 h
[3] = set-up: method as in PMID 29567575; settings: pH 7.40; cited from earlier work
[4] = previous work; cited from earlier work
[5] = tested on: EGFR phosphorylation at position Y1068 and ERK 1/2 in A431 cells; set-up: method as in PMID 25079700; settings: A431, normoxic; cited from earlier work
[6] = Cyclic voltammetry, cathodic peak potential Co(III)/Co(II); type: physicochemical; settings: 10 mM phosphate buffer pH 7.40, 0.1 M KCl, scan rate 30 mV/s, 1.5 mM complex
Method: As the reduction process is crucial for the activation of cobalt(III)-based prodrug systems, the redox properties of the complexes were investigated to elucidate the effects of ligand methylation at different positions. Cyclic voltammetry measurements were performed in aqueous solution at pH 7.40 (10 mM phosphate buffer with 0.1 M KCl). […] Also, at a much higher scan speed of 1000 mV/s, the redox processes were still completely irreversible (Figure S5).
The compounds were dissolved in 10 mM phosphate buffer (pH 7.40), with 0.1 M KCl as the supporting electrolyte, to obtain a final concentration of 1.5 mM. Electrochemical experiments were conducted on an EG&G PARC 273A potentiostat/galvanostat with scan rates of 30 and 1000 mV/s at room temperature. Argon was bubbled through the solution before every measurement to remove oxygen. A three-electrode configuration cell was used with a glassy carbon electrode as the working electrode, which was polished before every measurement. The reference electrode was Ag/AgCl/KCl (3.5 M), and the auxiliary electrode was a platinum wire. Electrodes were conditioned regularly in 1 M H2SO4 for 5–10 cycles between voltage limits of −1.0 and 1.0 V at a scan rate of 100 mV/s. The system was calibrated with 1.5 mM K3[Fe(CN)6] for every experiment. Redox potentials measured relative to the Ag/AgCl/KCl (3.5 M) reference electrode were converted for potentials against NHE by the addition of 0.205 V. Measurements were repeated at least three times, and the mean values were calculated.

[7] = Interaction with low-molecular weight reducing agents (GSH, AA, NADH), UV-vis and fluorometric detection; type: physicochemical; settings: 10 equiv of GSH, pH 7.40, 25 °C, 24 h
Method: The interaction of AA, GSH, and NADH at pH 7.40 (phosphate buffer) was investigated exemplarily for Co(acac)2L^+ and Co(Meacac)2L^+. The reaction was followed by ultraviolet–visible (UV–vis) and fluorometric detection at 25 °C with a 10-fold excess of reducing agent. Spectrofluorometry was proven to be an effective technique for monitoring this redox reaction, because the free EGFR inhibitor ligand L is highly fluorescent, while its cobalt(III) complex has negligible emission (vide supra).[17] Accordingly, an increase in the emission intensity is expected upon reduction and concomitant release of the free ligand. […] The same tendency was observed by UV–vis detection (data not shown). […] AA and NADH were also not able to reduce the two complexes even after 24 h. […]
Proton dissociation processes of PhEn were followed by UV–vis spectrophotometry and spectrofluorometry; samples were prepared in water containing 100 and 10 μM ligand, respectively, and 0.1 M KCl at 25 ± 0.2 °C. The proton dissociation constants and the UV–vis or fluorescence emission spectra of the individual species in the various protonation states were calculated by deconvolution of the spectra recorded in the pH range of 2.0–11.5 with PSEQUAD.[40] […] Batch samples contained 30 μM cobalt(III) complex and 10 equiv of AA, GSH, or NADH in PBS buffer (pH 7.40) and were used only once to record their UV–vis and fluorescence spectra. […]

[8] = tested on: EGFR phosphorylation at position Y1068 and ERK 1/2 in A431 cells; assay: Western blot of EGFR signaling (pEGFR Y1068, pERK 1/2) after EGF stimulation; type: cell-based, Human; settings: A431 serum-starved, 2 h drug, EGF 50 ng/mL 10 min, normoxic
[9] = Serum stability, HPLC-MS; type: in vitro ADME; settings: FCS, 37 °C, pH 7.4, 50 μM, 26 h
Method: The data presented in the previous sections indicate that even in the presence of low-molecular weight reducing agents the cobalt(III) complexes are completely stable. Therefore, we wanted to investigate if this is still true in a more elaborate biological environment like blood serum. To this end, the four EGFR inhibitor complexes were dissolved in 50 mM phosphate puffer and mixed in a 1:10 ratio with fetal calf serum (FCS; buffered with 150 mM phosphate buffer to keep a stable pH of 7.4) to a final concentration of 50 μM. The samples were incubated at 37 °C and after 0, 2, 6, 24, and 26 h extracted with acetonitrile and measured by HPLC-MS. […] The intact complex could be observed at 14.2 min (blue peak, m/z 614.0). The red signal at the same retention time (Figure 7A; 14.2 min, m/z 358.1) is a mass spectrometry artifact and belongs to the free ligand generated during ionization of the complex.
For serum stability measurements, 135 μL of FCS, buffered with 150 mM phosphate (Na2HPO4/NaH2PO4) to maintain a pH value of 7.4, was mixed with 15 μL of a 500 μM stock solution of the respective complex in 50 mM phosphate buffer to reach a final concentration of 50 μM. The samples were incubated at 37 °C. At different time points, to 20 μL of serum was added 40 μL of ACN. […] The supernatant was taken up with a syringe and directly measured via HPLC-MS.

[10] = 0.1% O2, read-out: IC50 hypoxia with 0.1% O2
[11] = 1% O2, read-out: IC50 hypoxia with 1% O2
[12] = 5% O2, read-out: IC50 hypoxia with 5% O2
[13] = 21% O2, read-out: IC50 normoxia

EGFR (ErbB1), sequence (P00533 25-1210): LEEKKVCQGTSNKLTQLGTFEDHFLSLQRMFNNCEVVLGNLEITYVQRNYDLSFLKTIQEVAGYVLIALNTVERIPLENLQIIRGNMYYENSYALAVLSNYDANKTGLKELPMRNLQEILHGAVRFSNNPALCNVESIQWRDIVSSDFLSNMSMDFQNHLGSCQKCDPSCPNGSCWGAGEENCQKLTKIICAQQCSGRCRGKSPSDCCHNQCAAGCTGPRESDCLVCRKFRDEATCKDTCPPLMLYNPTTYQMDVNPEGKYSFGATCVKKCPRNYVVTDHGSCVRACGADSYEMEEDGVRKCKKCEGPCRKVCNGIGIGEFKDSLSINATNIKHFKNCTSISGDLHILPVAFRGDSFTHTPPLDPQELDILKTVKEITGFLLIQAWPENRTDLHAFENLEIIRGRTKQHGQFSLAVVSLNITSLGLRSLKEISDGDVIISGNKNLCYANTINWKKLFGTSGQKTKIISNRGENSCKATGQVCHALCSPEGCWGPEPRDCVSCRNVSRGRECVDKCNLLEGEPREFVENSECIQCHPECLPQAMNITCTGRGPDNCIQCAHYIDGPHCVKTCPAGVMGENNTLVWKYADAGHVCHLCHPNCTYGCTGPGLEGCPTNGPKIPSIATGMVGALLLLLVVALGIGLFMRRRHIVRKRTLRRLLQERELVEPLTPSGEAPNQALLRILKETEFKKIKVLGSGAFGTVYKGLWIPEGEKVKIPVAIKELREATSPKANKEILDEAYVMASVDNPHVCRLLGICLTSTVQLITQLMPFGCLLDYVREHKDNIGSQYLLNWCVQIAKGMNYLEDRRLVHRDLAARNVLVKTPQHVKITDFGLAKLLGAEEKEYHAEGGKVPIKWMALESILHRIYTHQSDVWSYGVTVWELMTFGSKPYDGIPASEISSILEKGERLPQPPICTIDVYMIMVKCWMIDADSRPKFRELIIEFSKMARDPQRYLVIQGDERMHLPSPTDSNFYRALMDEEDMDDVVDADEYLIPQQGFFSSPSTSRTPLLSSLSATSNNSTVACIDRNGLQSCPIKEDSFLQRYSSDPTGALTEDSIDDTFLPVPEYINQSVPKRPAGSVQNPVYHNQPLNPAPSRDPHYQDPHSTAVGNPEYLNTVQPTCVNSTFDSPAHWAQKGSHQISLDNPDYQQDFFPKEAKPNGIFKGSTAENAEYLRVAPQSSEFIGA

IC50 [1] | reduction / release of free ligand L by GSH [7] | Compound | IC50 ([2]; Homo sapiens, A-431, 0.1% O2, read-out: IC50 hypoxia with 0.1% O2) | IC50 ([2]; Homo sapiens, A-431, 1% O2, read-out: IC50 hypoxia with 1% O2) | IC50 ([2]; Homo sapiens, A-431, 5% O2, read-out: IC50 hypoxia with 5% O2) | IC50 ([2]; Homo sapiens, A-431, 21% O2, read-out: IC50 normoxia) | log D7.40 [3] | pKa1 [4] | pKa2 [4] | EGFR-inhibitory potential (pEGFR, pERK 1/2) [5] | cathodic peak potential (Ec) vs NHE [6] | EGFR-inhibitory potential (pEGFR, pERK 1/2) [8] | IC50 [2, 10] | IC50 [2, 11] | IC50 [2, 12] | IC50 [2, 13] | intact compound after serum incubation [9] | cobalt complex less active than the respective free ligand ([2]; normoxia)
0.00029 µM |  | NCCNc1ccc2ncnc(Nc3cccc(Br)c3)c2c1 [L, N^6-(2-Aminoethyl)-N^4-(3-bromophenyl)quinazoline-4,6-diamine] | 13.7 ± 2.9 µM | 12.7 ± 2 µM | 12.8 ± 0.9 µM | 12 ± 1.3 µM | 1.86 ± 0.03[29] | < 1.0 | 9.21 | potent EGFR inhibition |  |  |  |  |  |  |  | 
 | practically no reduction process | CC(=O)[C-](C)C(C)=O.CC(=O)[C-](C)C(C)=O.NCCNc1ccc2ncnc(Nc3cccc(Br)c3)c2c1.[Cl-].[Co+3] [Co(Meacac)2L^+, Bis(3-methyl-2,4-pentanedionato) N^6-(2-Aminoethyl)-N^4-(3-bromophenyl)quinazoline-4,6-diamine Cobalt(III) Chloride] |  |  |  |  |  |  |  |  | 4 mV | distinctly weakened EGFR-inhibitory potential | 23.5 ± 5.1 µM | 25.3 ± 3.9 µM | 45.5 ± 2.7 µM | 51.9 ± 9.4 µM |  | 
 |  | CC(=O)[CH-]C(C)=O.CC(=O)[CH-]C(C)=O.CNCCNc1ccc2ncnc(Nc3cccc(Br)c3)c2c1.[Cl-].[Co+3] [Co(acac)2MeL^+, Bis(2,4-pentanedionato) N^4-(3-Bromophenyl)-N^6-[2-(methylamino)ethyl]quinazoline-4,6-diamine Cobalt(III) Chloride] |  |  |  |  |  |  |  |  | 120 mV |  | 11.9 ± 3.5 µM | 12.5 ± 3.1 µM | 13.5 ± 3.2 µM | 15.1 ± 1.6 µM | 50% | ~2 fold
